Literature values in patent US11564888B2, “Extended release compositions comprising trihexyphenidyl” (KASHIV SPECIALTY PHARMACEUTICALS, LLC, priority 2018, dated 2023).

Conditions: in vivo

plasma half-life: about 3.7 hours
Compound: OC(CCN1CCCCC1)(c1ccccc1)C1CCCCC1 (stereo not drawn) [trihexyphenidyl, α-cyclohexyl-α-phenyl-1-piperidinepropanol]
